Laboratory results published in patent publication EP4603105A1, “PHARMACEUTICAL COMPOSITION CONTAINING CYCLIC COMPOUND HAVING SELECTIVE KRAS INHIBITORY EFFECT AGAINST HRAS AND NRAS” (CHUGAI SEIYAKU KABUSHIKI KAISHA, priority 2022, dated 2024).

Columns and labels:
[1] = molecular target: GDP-bound NRAS wild-type protein (Homo sapiens, UniProt P01111); assay: Binding to NRAS by surface plasmon resonance (SPR), KD and KD ratio to KRAS; conditions: ratio of KD for GDP-bound NRAS wild-type protein to KD for KRAS
Sequence of GDP-bound NRAS wild-type protein (P01111 whole entry): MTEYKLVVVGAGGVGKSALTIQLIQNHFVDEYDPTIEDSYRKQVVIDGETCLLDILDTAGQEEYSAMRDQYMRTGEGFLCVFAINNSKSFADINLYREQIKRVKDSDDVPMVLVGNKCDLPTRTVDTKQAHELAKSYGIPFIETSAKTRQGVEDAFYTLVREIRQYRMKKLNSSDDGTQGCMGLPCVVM
Outline: (§1)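 Each cycle, GDP-bound biotin-Avi RAS was captured (~100–300 RU), compound concentrations were injected low to high for 75 s each at 100 µL/min, then the chip was regenerated. Buffer: HBS pH 7.4, 10 mM MgCl2, 10 µM GDP, 1 mM DTT, 4% DMSO; 30°C. KD from a 1:1 binding model.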

[2] = system: human lung cancer strain NCI-H441; assay type: cell-based
Outline: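 Signal came from […] measured per well once the reagent was added. Beforehand, cells were cultured at 37°C and 5% carbon dioxide on a compound series serially diluted in dimethyl sulfoxide.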

[3] = molecular target: HRAS wild-type protein (Homo sapiens, UniProt P01112); assay: Binding to HRAS by surface plasmon resonance (SPR), KD and KD ratio to KRAS; conditions: ratio of KD for HRAS wild-type protein to KD for KRAS
Sequence of HRAS wild-type protein (P01112 whole entry): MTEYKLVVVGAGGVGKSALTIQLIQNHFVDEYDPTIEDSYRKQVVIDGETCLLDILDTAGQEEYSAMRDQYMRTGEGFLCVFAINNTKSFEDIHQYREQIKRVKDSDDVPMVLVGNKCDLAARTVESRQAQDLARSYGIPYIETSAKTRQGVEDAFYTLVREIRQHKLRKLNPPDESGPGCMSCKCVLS
Outline: as §1

SMILES	NRAS /KRAS [1]	IC50 [2]	HRAS /KRAS [3]
CCO[C@@H]1C[C@H]2C(=O)NC3(CCC3)C(=O)N(C)[C@@H](C3CCCC3)C(=O)N(C)[C@H](C(=O)N(C)C)CC(=O)N(C)[C@@H](CC)C(=O)N[C@@H]([C@@H](C)CC)C(=O)N(C)[C@@H](C)C(=O)N(C)[C@H]3C/C=C\CCN(C3=O)[C@@H](Cc3ccc(C(F)(F)F)cc3)C(=O)N(C)CC(=O)N[C@@H](CCc3cc(F)c(C(F)(F)F)c(F)c3)C(=O)N2C1 [PP1054]	A (a compound having 10 or more and less than 20 is denoted as A)	469 nM	B (a compound having 3 or more and less than 10 is denoted as B)
CCO[C@@H]1C[C@H]2C(=O)NC3(CCC3)C(=O)N(C)[C@@H](C3CCCC3)C(=O)N(C)[C@H](C(=O)N(C)C)CC(=O)N(C)[C@@H](CC)C(=O)N[C@@H]([C@@H](C)CC)C(=O)N3C[C@H](OCC)C[C@H]3C(=O)N(C)[C@H]3C/C=C\CCN(C3=O)[C@@H](Cc3ccc(C(F)(F)F)cc3)C(=O)N(C)CC(=O)N[C@@H](CCc3cc(F)c(C(F)(F)F)c(F)c3)C(=O)N2C1 [PP1057]	A (a compound having 10 or more and less than 20 is denoted as A)	96.9 nM	B (a compound having 3 or more and less than 10 is denoted as B)
CCO[C@@H]1C[C@H]2C(=O)NC3(CCC3)C(=O)N(C)[C@@H](C3CCCC3)C(=O)N(C)[C@H](C(=O)N(C)C)CC(=O)N(C)[C@@H](CC)C(=O)N[C@@H]([C@@H](C)CC)C(=O)N3CCSC[C@H]3C(=O)N(C)[C@H]3C/C=C\CCN(C3=O)[C@@H](Cc3ccc(C(F)(F)F)cc3)C(=O)N(C)CC(=O)N[C@@H](CCc3cc(F)c(C(F)(F)F)c(F)c3)C(=O)N2C1 [PP1060]	A (a compound having 10 or more and less than 20 is denoted as A)	307 nM	A (a compound having 10 or more and less than 20 is denoted as A)
CCO[C@@H]1C[C@H]2C(=O)NC3(CCC3)C(=O)N(C)[C@@H](C3CCCC3)C(=O)N(C)[C@H](C(=O)N(C)C)CC(=O)N(C)[C@@H](CC)C(=O)N[C@@H]([C@@H](C)CC)C(=O)N[C@@H](C)C(=O)N(C)[C@H]3C/C=C\CCN(C3=O)[C@@H](Cc3ccc(C(F)(F)F)cc3)C(=O)N(C)CC(=O)N[C@@H](CCc3cc(F)c(C(F)(F)F)c(F)c3)C(=O)N2C1 [PP1065]	A (a compound having 10 or more and less than 20 is denoted as A)	96.7 nM	B (a compound having 3 or more and less than 10 is denoted as B)
CC[C@H](C)[C@@H]1NC(=O)[C@H](CC(C)C)N(C)C(=O)C[C@@H](C(=O)N2CCOCC2)N(C)C(=O)[C@H](C2CCCC2)N(C)C(=O)C2(CCC2)NC(=O)[C@@H]2[C@@H](OC)CCN2C(=O)[C@H](CCc2cc(F)c(C(F)(F)F)c(F)c2)NC(=O)CN(C)C(=O)[C@H](Cc2ccc(C(F)(F)F)cc2)N2CCCCC[C@@H](C2=O)N(C)C(=O)CN(C)C1=O [PP1067]	B (a compound having 3 or more and less than 10 is denoted as B)	299 nM	B (a compound having 3 or more and less than 10 is denoted as B)
CCO[C@H]1CCN2C(=O)[C@H](CCc3cc(F)c(C(F)(F)F)c(F)c3)NC(=O)CN(C)C(=O)[C@H](Cc3ccc(C(F)(F)F)cc3)N3CCCCC[C@@H](C3=O)N(C)C(=O)CN(C)C(=O)[C@H]([C@@H](C)CC)NC(=O)[C@H](CC(C)C)N(C)C(=O)C[C@@H](C(=O)N3CCOCC3)N(C)C(=O)[C@H](C3CCCC3)N(C)C(=O)C3(CCC3)NC(=O)[C@H]12 [PP1068]	A (a compound having 10 or more and less than 20 is denoted as A)	121 nM	B (a compound having 3 or more and less than 10 is denoted as B)
CCCO[C@H]1CCN2C(=O)[C@H](CCc3cc(F)c(C(F)(F)F)c(F)c3)NC(=O)CN(C)C(=O)[C@H](Cc3ccc(C(F)(F)F)cc3)N3CCCCC[C@@H](C3=O)N(C)C(=O)CN(C)C(=O)[C@H]([C@@H](C)CC)NC(=O)[C@H](CC(C)C)N(C)C(=O)C[C@@H](C(=O)N3CCOCC3)N(C)C(=O)[C@H](C3CCCC3)N(C)C(=O)C3(CCC3)NC(=O)[C@H]12 [PP1069]	A (a compound having 10 or more and less than 20 is denoted as A)	127 nM	B (a compound having 3 or more and less than 10 is denoted as B)
CCCCO[C@H]1CCN2C(=O)[C@H](CCc3cc(F)c(C(F)(F)F)c(F)c3)NC(=O)CN(C)C(=O)[C@H](Cc3ccc(C(F)(F)F)cc3)N3CCCC[C@@H](C3=O)N(C)C(=O)CN(C)C(=O)[C@H]([C@@H](C)CC)NC(=O)[C@H](CC(C)C)N(C)C(=O)C[C@@H](C(=O)N3CCOCC3)N(C)C(=O)[C@H](C3CCCC3)N(C)C(=O)C3(CCC3)NC(=O)[C@H]12 [PP1071]	B (a compound having 3 or more and less than 10 is denoted as B)	24.7 nM	B (a compound having 3 or more and less than 10 is denoted as B)
CC[C@H](C)[C@@H]1NC(=O)[C@H](CC(C)C)N(C)C(=O)C[C@@H](C(=O)N2CCOCC2)N(C)C(=O)[C@H](C2CCCC2)N(C)C(=O)C2(CCC2)NC(=O)[C@@H]2[C@@H](OCC3CC3)CCN2C(=O)[C@H](CCc2cc(F)c(C(F)(F)F)c(F)c2)NC(=O)CN(C)C(=O)[C@H](Cc2ccc(C(F)(F)F)cc2)N2CCCC[C@@H](C2=O)N(C)C(=O)CN(C)C1=O [PP1072]	B (a compound having 3 or more and less than 10 is denoted as B)	13 nM	B (a compound having 3 or more and less than 10 is denoted as B)
CC[C@H](C)[C@@H]1NC(=O)[C@H](CC(C)C)N(C)C(=O)C[C@@H](C(=O)N2CCOCC2)N(C)C(=O)[C@H](C2CCCC2)N(C)C(=O)C2(CCC2)NC(=O)[C@@H]2[C@@H](OCC3CCCC3)CCN2C(=O)[C@H](CCc2cc(F)c(C(F)(F)F)c(F)c2)NC(=O)CN(C)C(=O)[C@H](Cc2ccc(C(F)(F)F)cc2)N2CCCC[C@@H](C2=O)N(C)C(=O)CN(C)C1=O [PP1073]	B (a compound having 3 or more and less than 10 is denoted as B)	83.7 nM	B (a compound having 3 or more and less than 10 is denoted as B)
CC[C@H](C)[C@@H]1NC(=O)[C@H](CC(C)C)N(C)C(=O)C[C@@H](C(=O)N2CCOCC2)N(C)C(=O)[C@H](C2CCCC2)N(C)C(=O)C2(CCC2)NC(=O)[C@@H]2[C@@H](OC)CCN2C(=O)[C@H](CCc2cc(F)c(C(F)(F)F)c(F)c2)NC(=O)CN(C)C(=O)[C@H](Cc2ccc(C(F)(F)F)cc2)N2CCCC[C@@H](C2=O)N(C)C(=O)CN(C)C1=O [PP1075]	B (a compound having 3 or more and less than 10 is denoted as B)	21.8 nM	B (a compound having 3 or more and less than 10 is denoted as B)
CCO[C@H]1CCN2C(=O)[C@H](CCc3cc(F)c(C(F)(F)F)c(F)c3)NC(=O)CN(C)C(=O)[C@H](Cc3ccc(C(F)(F)F)cc3)N3CCCC[C@@H](C3=O)N(C)C(=O)CN(C)C(=O)[C@H]([C@@H](C)CC)NC(=O)[C@H](CC(C)C)N(C)C(=O)C[C@@H](C(=O)N3CCOCC3)N(C)C(=O)[C@H](C3CCCC3)N(C)C(=O)C3(CCC3)NC(=O)[C@H]12 [PP1076]	B (a compound having 3 or more and less than 10 is denoted as B)	4.6 nM	B (a compound having 3 or more and less than 10 is denoted as B)
CCCO[C@H]1CCN2C(=O)[C@H](CCc3cc(F)c(C(F)(F)F)c(F)c3)NC(=O)CN(C)C(=O)[C@H](Cc3ccc(C(F)(F)F)cc3)N3CCCC[C@@H](C3=O)N(C)C(=O)CN(C)C(=O)[C@H]([C@@H](C)CC)NC(=O)[C@H](CC(C)C)N(C)C(=O)C[C@@H](C(=O)N3CCOCC3)N(C)C(=O)[C@H](C3CCCC3)N(C)C(=O)C3(CCC3)NC(=O)[C@H]12 [PP1077]	B (a compound having 3 or more and less than 10 is denoted as B)	14.9 nM	B (a compound having 3 or more and less than 10 is denoted as B)
CC[C@H](C)[C@@H]1NC(=O)[C@H](CC(C)C)N(C)C(=O)C[C@@H](C(=O)N2CCOCC2)N(C)C(=O)[C@H](C2CCCC2)N(C)C(=O)C2(CCC2)NC(=O)[C@@H]2[C@H](OC)CCN2C(=O)[C@H](CCc2cc(F)c(C(F)(F)F)c(F)c2)NC(=O)CN(C)C(=O)[C@H](Cc2ccc(C(F)(F)F)cc2)N2CCCC[C@@H](C2=O)N(C)C(=O)CN(C)C1=O [PP1078]	B (a compound having 3 or more and less than 10 is denoted as B)	610 nM	B (a compound having 3 or more and less than 10 is denoted as B)
CCO[C@@H]1CCN2C(=O)[C@H](CCc3cc(F)c(C(F)(F)F)c(F)c3)NC(=O)CN(C)C(=O)[C@H](Cc3ccc(C(F)(F)F)cc3)N3CCCC[C@@H](C3=O)N(C)C(=O)CN(C)C(=O)[C@H]([C@@H](C)CC)NC(=O)[C@H](CC(C)C)N(C)C(=O)C[C@@H](C(=O)N3CCOCC3)N(C)C(=O)[C@H](C3CCCC3)N(C)C(=O)C3(CCC3)NC(=O)[C@H]12 [PP1079]	B (a compound having 3 or more and less than 10 is denoted as B)	27.2 nM	B (a compound having 3 or more and less than 10 is denoted as B)
